Test results as given in patent US20260306680A1, “RADIOLABELED COMPOUNDS TARGETING THE PROSTATE-SPECIFIC MEMBRANE ANTIGEN” (PROVINCIAL HEALTH SERVICES AUTHORITY, priority 2022, published 2026).
Like-named read-outs stand apart in the source and are kept apart here.

Tests used:
[1] = test system: glutamate carboxypeptidase II; conditions: compared to ^18F-DCFPyL; cited from earlier work
LNCaP tumor xenografts = test: Ex vivo biodistribution in mice bearing LNCaP tumor xenografts; parameters: species or system mouse (male NOD-scid IL2Rg^null (NSG)); conditions: mean ± SD
Procedure: (§1) All imaging and biodistribution studies used male NOD-scid IL2Rg^null (NSG) mice and conducted according to the guidelines established by the Canadian Council on Animal Care and approved by Animal Ethics Committee of the University of British Columbia. For tumor inoculations, mice were anesthetized via inhalation of 2% isoflurane in oxygen and implanted subcutaneously with 5×10^6 LNCaP cells below the left shoulder. Imaging and biodistribution studies were performed only after tumors grew to 5-8 mm in diameter.
(§2) For PET/CT imaging studies, approximately 5 MBq of the ^18F-labeled tracer was injected through the tail vein. While for ex vivo biodistribution studies, mice were injected with around 2 MBq of the ^18F-labeled tracer through the tail vein. Mice were allowed to recover and roam freely in the cages after injecting the tracer. At 45 min post-injection, imaging mouse were sedated again and positioned on the scanner. A 10 min CT scan was conducted first to allow for localization and attenuation correction for later reconstruction of PET images. A 10 min PET image was acquired following CT scan. Heating pads were used during the entire procedure to keep the mice warm and circulate the blood. At 1 h post-injection, all mice for biodistribution study were euthanized with blood drawn from heart, and all tissues of interest were collected, rinsed with PBS, blotted dry, weighed, and counted using an automated gamma counter. The uptake in each organ/tissue was normalized to the injected dose and expressed as the percentage of the injected dose per gram of tissue (% ID/g).
(§3) Representative maximum intensity projection PET images of ^18F-KLF1007-pyridine-BF3 and ^18F-KL01040 acquired at 1 h post-injection from LNCaP tumor-bearing mice is enumerated in Table 4 and shown in FIG. 1. Representative maximum intensity projection PET images of ^18F-KL01120 and ^18F-KL01130 acquired at 1 h post-injection from LNCaP tumor-bearing mice is also enumerated in Table 5 and shown in FIG. 2 (^18F-KL1120) and enumerated in Table 6 and shown in FIG. 3 (^18F-KL01130).

[2] = as above; parameters: species or system mouse (male NOD-scid IL2Rg^null (NSG)); conditions: mouse, iv, mean ± SD
Procedure: as §1, §2, §3

[3] = 1 h Blocked (co-injection of 2-PMPA, 0.5 mg)

## O=C(O)CC[C@H](NC(=O)N[C@@H](CCCCNC(=O)[C@H](Cc1ccc2ccccc2c1)NC(=O)c1ccc(CNC(=O)[C@H](CCC(=O)O)NC(=O)[C@H](CCC(=O)O)NC(=O)c2ccc(F)nc2)cc1)C(=O)O)C(=O)O [^18F-PSMA-1007]
[1]
  nonspecific uptake level in most normal tissues: even higher

## O=C(O)CC[C@H](NC(=O)N[C@@H](CCCCNC(=O)[C@H](Cc1c2ccccc2cc2ccccc12)NC(=O)[C@H]1CC[C@H](CNC(=O)[C@H](CCNC(=O)c2ccc(F)nc2)NC(=O)CCC(=O)N(CC(=O)O)CC(=O)O)CC1)C(=O)O)C(=O)O [^18F-KL01120]
LNCaP tumor xenografts; [3]
  Tumor:Muscle uptake ratio: 9.96 ± 3.13
  Tumour:Blood uptake ratio: 2.21 ± 0.46
  Tumour:Bone uptake ratio: 8.46 ± 4.80
  Tumour:Kidney uptake ratio: 0.45 ± 0.05
LNCaP tumor xenografts; 1 h post-injection
  Tumor:Muscle uptake ratio: 6.58 ± 1.38
  Tumour:Blood uptake ratio: 8.41 ± 2.02
  Tumour:Bone uptake ratio: 9.31 ± 3.39
  Tumour:Kidney uptake ratio: 0.07 ± 0.02
[2]; adrenal glands, 1 h Blocked (co-injection of 2-PMPA, 0.5 mg), read-out: Adrenal Glands uptake
  tissue uptake at 1 h: 0.48 ± 0.21 %ID/g
[2]; adrenal glands, 1 h post-injection, read-out: Adrenal Glands uptake
  tissue uptake at 1 h: 11.2 ± 4.71 %ID/g
[2]; blood, 1 h Blocked (co-injection of 2-PMPA, 0.5 mg), read-out: Blood uptake
  tissue uptake at 1 h: 0.86 ± 0.2 %ID/g
[2]; blood, 1 h post-injection, read-out: Blood uptake
  tissue uptake at 1 h: 0.71 ± 0.14 %ID/g
[2]; bone, 1 h Blocked (co-injection of 2-PMPA, 0.5 mg), read-out: Bone uptake
  tissue uptake at 1 h: 0.35 ± 0.23 %ID/g
[2]; bone, 1 h post-injection, read-out: Bone uptake
  tissue uptake at 1 h: 0.92 ± 0.46 %ID/g
[2]; brain, 1 h Blocked (co-injection of 2-PMPA, 0.5 mg), read-out: Brain uptake
  tissue uptake at 1 h: 0.03 %ID/g
[2]; brain, 1 h post-injection, read-out: Brain uptake
  tissue uptake at 1 h: 0.05 ± 0.01 %ID/g
[2]; fat, 1 h Blocked (co-injection of 2-PMPA, 0.5 mg), read-out: Fat uptake
  tissue uptake at 1 h: 0.18 ± 0.05 %ID/g
[2]; fat, 1 h post-injection, read-out: Fat uptake
  tissue uptake at 1 h: 1.57 ± 0.55 %ID/g
[2]; heart, 1 h Blocked (co-injection of 2-PMPA, 0.5 mg), read-out: Heart uptake
  tissue uptake at 1 h: 0.35 ± 0.06 %ID/g
[2]; heart, 1 h post-injection, read-out: Heart uptake
  tissue uptake at 1 h: 2.9 ± 0.66 %ID/g
[2]; kidneys, 1 h Blocked (co-injection of 2-PMPA, 0.5 mg), read-out: Kidneys uptake
  tissue uptake at 1 h: 4.29 ± 1.34 %ID/g
[2]; kidneys, 1 h post-injection, read-out: Kidneys uptake
  tissue uptake at 1 h: 88.1 ± 17.4 %ID/g
[2]; lacrimal glands, 1 h Blocked (co-injection of 2-PMPA, 0.5 mg), read-out: Lacrimal Glands uptake
  tissue uptake at 1 h: 0.07 ± 0.05 %ID/g
[2]; lacrimal glands, 1 h post-injection, read-out: Lacrimal Glands uptake
  tissue uptake at 1 h: 0.06 ± 0.03 %ID/g
[2]; large intestine, 1 h Blocked (co-injection of 2-PMPA, 0.5 mg), read-out: Large Intestine uptake
  tissue uptake at 1 h: 0.25 ± 0.1 %ID/g
[2]; large intestine, 1 h post-injection, read-out: Large Intestine uptake
  tissue uptake at 1 h: 1.11 ± 0.42 %ID/g
[2]; liver, 1 h Blocked (co-injection of 2-PMPA, 0.5 mg), read-out: Liver uptake
  tissue uptake at 1 h: 0.59 ± 0.1 %ID/g
[2]; liver, 1 h post-injection, read-out: Liver uptake
  tissue uptake at 1 h: 2.64 ± 0.57 %ID/g
[2]; lncap tumor, 1 h Blocked (co-injection of 2-PMPA, 0.5 mg), read-out: LNCaP Tumor uptake
  tissue uptake at 1 h: 1.87 ± 0.46 %ID/g
[2]; lncap tumor, 1 h post-injection, read-out: LNCaP Tumor uptake
  tissue uptake at 1 h: 6.21 ± 1.25 %ID/g
[2]; lungs, 1 h Blocked (co-injection of 2-PMPA, 0.5 mg), read-out: Lungs uptake
  tissue uptake at 1 h: 0.81 ± 0.18 %ID/g
[2]; lungs, 1 h post-injection, read-out: Lungs uptake
  tissue uptake at 1 h: 4.1 ± 0.71 %ID/g
[2]; muscle, 1 h Blocked (co-injection of 2-PMPA, 0.5 mg), read-out: Muscle uptake
  tissue uptake at 1 h: 0.27 ± 0.18 %ID/g
[2]; muscle, 1 h post-injection, read-out: Muscle uptake
  tissue uptake at 1 h: 0.9 ± 0.2 %ID/g
[2]; pancreas, 1 h Blocked (co-injection of 2-PMPA, 0.5 mg), read-out: Pancreas uptake
  tissue uptake at 1 h: 0.27 ± 0.07 %ID/g
[2]; pancreas, 1 h post-injection, read-out: Pancreas uptake
  tissue uptake at 1 h: 2.22 ± 0.66 %ID/g
[2]; salivary glands, 1 h Blocked (co-injection of 2-PMPA, 0.5 mg), read-out: Salivary Glands uptake
  tissue uptake at 1 h: 0.35 ± 0.08 %ID/g
[2]; salivary glands, 1 h post-injection, read-out: Salivary Glands uptake
  tissue uptake at 1 h: 9.18 ± 2.36 %ID/g
[2]; seminal gland, 1 h Blocked (co-injection of 2-PMPA, 0.5 mg), read-out: Seminal Gland uptake
  tissue uptake at 1 h: 0.76 ± 0.19 %ID/g
[2]; seminal glands, 1 h post-injection, read-out: Seminal Glands uptake
  tissue uptake at 1 h: 0.98 ± 0.42 %ID/g
[2]; small intestine, 1 h Blocked (co-injection of 2-PMPA, 0.5 mg), read-out: Small Intestine uptake
  tissue uptake at 1 h: 1.83 ± 0.37 %ID/g
[2]; small intestine, 1 h post-injection, read-out: Small Intestine uptake
  tissue uptake at 1 h: 4.51 ± 0.87 %ID/g
[2]; spleen, 1 h Blocked (co-injection of 2-PMPA, 0.5 mg), read-out: Spleen uptake
  tissue uptake at 1 h: 0.29 ± 0.03 %ID/g
[2]; spleen, 1 h post-injection, read-out: Spleen uptake
  tissue uptake at 1 h: 22.1 ± 2.92 %ID/g
[2]; stomach, 1 h Blocked (co-injection of 2-PMPA, 0.5 mg), read-out: Stomach uptake
  tissue uptake at 1 h: 0.14 ± 0.06 %ID/g
[2]; stomach, 1 h post-injection, read-out: Stomach uptake
  tissue uptake at 1 h: 0.68 ± 0.17 %ID/g
[2]; testes, 1 h Blocked (co-injection of 2-PMPA, 0.5 mg), read-out: Testes uptake
  tissue uptake at 1 h: 0.28 ± 0.07 %ID/g
[2]; testes, 1 h post-injection, read-out: Testes uptake
  tissue uptake at 1 h: 0.92 ± 0.29 %ID/g
[2]; thyroid, 1 h Blocked (co-injection of 2-PMPA, 0.5 mg), read-out: Thyroid uptake
  tissue uptake at 1 h: 0.33 ± 0.08 %ID/g
[2]; thyroid, 1 h post-injection, read-out: Thyroid uptake
  tissue uptake at 1 h: 4.53 ± 0.74 %ID/g
